In US8952024B2, “Herbicidal pyrimidone derivatives” (E I du Pont de Nemours and Company, priority 2009, dated 2015):

Legend:
Assay in all cases: Test B pre-/postemergence plant response
Type in all cases: in vivo
[1] = system: velvetleaf (Abutilon theophrasti)
Summary of the method: (§1)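 Greenhouse herbicide screen. Pre- and postemergence (1- to 4-leaf) spray of compound in solvent/surfactant mixture; loam–sand soil for pre, peat/vermiculite medium for post. Visual control rating 0–100 at 13 to 15 days after treatment.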

[2] = system: blackgrass (Alopecurus myosuroides)
Summary of the method: as §1

[3] = system: yellow nutsedge (Cyperus esculentus)
Summary of the method: as §1

wild oat (Avena fatua) = system: wild oat (Avena fatua)
Summary of the method: as §1

soybean (Glycine max) = system: soybean (Glycine max)
Summary of the method: as §1

[4] = system: wheat (Triticum aestivum)
Summary of the method: as §1

[5] = system: johnsongrass (Sorghum halepense)
Summary of the method: as §1

[6] = system: goosegrass (Eleusine indica)
Summary of the method: as §1

[7] = system: woolly cupgrass (Eriochloa villosa)
Summary of the method: as §1

[8] = 62 g ai/ha, postemergence, 0 is no effect, 100 is complete control, 13 to 15 days

In the case of `O=C1CCCC(O)=C1C(=O)c1cnc(-c2ccccc2)n(C2CCCCC2)c1=O` [Compound 128, 3-cyclohexyl-5-[(2-hydroxy-6-oxo-1-cyclohexen-1-yl)carbonyl]-2-phenyl-4(3H)-pyrimidinone], the “Velvetleaf plant response rating (0 to 100 scale)” value [1, 8] is reported as 95, the pest or weed control at 31 g/ha ([1]; Abutilon theophrasti, post-emergence, 360 h, Postemergence, 31 g ai/ha, 0 to 100 scale (0 no effect, 100 complete control), read-out: Plant response rating, Velvetleaf) is reported as 90% and the pest or weed control at 125 g/ha ([1]; Abutilon theophrasti, post-emergence, 360 h, Postemergence, 125 g ai/ha, scale 0 to 100 (0 no effect, 100 complete control), read-out: Plant response rating, Velvetleaf) is reported as 95%. The pest or weed control at 250 g/ha ([1]; Abutilon theophrasti, post-emergence, 360 h, Postemergence, 250 g ai/ha, scale 0 to 100 (0 no effect, 100 complete control), 13 to 15 days, read-out: Plant response rating, Velvetleaf) was 100%, the “Blackgrass plant response rating (0 to 100 scale)” value [2, 8] was 5 and the pest or weed control at 31 g/ha ([2]; Alopecurus myosuroides, post-emergence, 360 h, Postemergence, 31 g ai/ha, 0 to 100 scale (0 no effect, 100 complete control), read-out: Plant response rating, Blackgrass) was 5%. The pest or weed control at 125 g/ha ([2]; Alopecurus myosuroides, post-emergence, 360 h, Postemergence, 125 g ai/ha, scale 0 to 100 (0 no effect, 100 complete control), read-out: Plant response rating, Blackgrass) was 10%, the pest or weed control at 250 g/ha ([2]; Alopecurus myosuroides, post-emergence, 360 h, Postemergence, 250 g ai/ha, scale 0 to 100 (0 no effect, 100 complete control), 13 to 15 days, read-out: Plant response rating, Blackgrass) was 15% and the “Nutsedge, Yellow plant response rating (0 to 100 scale)” value [3, 8] was 35. For the same compound, the pest or weed control at 31 g/ha ([3]; Cyperus, post-emergence, Postemergence, 31 g ai/ha, 0 to 100 scale (0 no effect, 100 complete control), read-out: Plant response rating, Nutsedge, Yellow) was 20%, the pest or weed control at 125 g/ha ([3]; Cyperus, post-emergence, Postemergence, 125 g ai/ha, scale 0 to 100 (0 no effect, 100 complete control), read-out: Plant response rating, Nutsedge, Yellow) was 60% and the pest or weed control at 250 g/ha ([3]; Cyperus, post-emergence, Postemergence, 250 g ai/ha, scale 0 to 100 (0 no effect, 100 complete control), 13 to 15 days, read-out: Plant response rating, Nutsedge, Yellow) was 60%. The “Oat, Wild plant response rating (0 to 100 scale)” value (wild oat (Avena fatua); [8]) was 50, the pest or weed control at 31 g/ha (wild oat (Avena fatua); Avena fatua, post-emergence, Postemergence, 31 g ai/ha, 0 to 100 scale (0 no effect, 100 complete control), read-out: Plant response rating, Oat, Wild) was 40% and the pest or weed control at 125 g/ha (wild oat (Avena fatua); Avena fatua, post-emergence, Postemergence, 125 g ai/ha, scale 0 to 100 (0 no effect, 100 complete control), read-out: Plant response rating, Oat, Wild) was 60%. The pest or weed control at 250 g/ha (wild oat (Avena fatua); Avena fatua, post-emergence, Postemergence, 250 g ai/ha, scale 0 to 100 (0 no effect, 100 complete control), 13 to 15 days, read-out: Plant response rating, Oat, Wild) was 80%, the “Soybean plant response rating (0 to 100 scale)” value (soybean (Glycine max); [8]) was 98 and the plant injury at 31 g/ha (soybean (Glycine max); Glycine max, post-emergence, Postemergence, 31 g ai/ha, 0 to 100 scale (0 no effect, 100 complete control), read-out: Plant response rating, Soybean) was 98%. For the same compound, the plant injury at 125 g/ha (soybean (Glycine max); Glycine max, post-emergence, Postemergence, 125 g ai/ha, scale 0 to 100 (0 no effect, 100 complete control), read-out: Plant response rating, Soybean) was 98%, the plant injury at 250 g/ha (soybean (Glycine max); Glycine max, post-emergence, Postemergence, 250 g ai/ha, scale 0 to 100 (0 no effect, 100 complete control), 13 to 15 days, read-out: Plant response rating, Soybean) was 98% and the “Wheat plant response rating (0 to 100 scale)” value [4, 8] was 0. For the same compound, the plant injury at 31 g/ha ([4]; Triticum aestivum, post-emergence, Postemergence, 31 g ai/ha, 0 to 100 scale (0 no effect, 100 complete control), read-out: Plant response rating, Wheat) was 0%, the plant injury at 125 g/ha ([4]; Triticum aestivum, post-emergence, Postemergence, 125 g ai/ha, scale 0 to 100 (0 no effect, 100 complete control), read-out: Plant response rating, Wheat) was 0% and the plant injury at 250 g/ha ([4]; Triticum aestivum, post-emergence, Postemergence, 250 g ai/ha, scale 0 to 100 (0 no effect, 100 complete control), 13 to 15 days, read-out: Plant response rating, Wheat) was 5%. For the same compound, the “Johnsongrass plant response rating (0 to 100 scale)” value [5, 8] was 70, the pest or weed control at 31 g/ha ([5]; Sorghum halepense, post-emergence, Postemergence, 31 g ai/ha, 0 to 100 scale (0 no effect, 100 complete control), read-out: Plant response rating, Johnsongrass) was 70% and the pest or weed control at 125 g/ha ([5]; Sorghum halepense, post-emergence, Postemergence, 125 g ai/ha, scale 0 to 100 (0 no effect, 100 complete control), read-out: Plant response rating, Johnsongrass) was 85%. The pest or weed control at 250 g/ha ([5]; Sorghum halepense, post-emergence, Postemergence, 250 g ai/ha, scale 0 to 100 (0 no effect, 100 complete control), 13 to 15 days, read-out: Plant response rating, Johnsongrass) was 85%, the “Goosegrass plant response rating (0 to 100 scale)” value [6, 8] was 95 and the pest or weed control at 31 g/ha ([6]; Eleusine indica, post-emergence, Postemergence, 31 g ai/ha, 0 to 100 scale (0 no effect, 100 complete control), read-out: Plant response rating, Goosegrass) was 90%. For the same compound, the pest or weed control at 125 g/ha ([6]; Eleusine indica, post-emergence, Postemergence, 125 g ai/ha, scale 0 to 100 (0 no effect, 100 complete control), read-out: Plant response rating, Goosegrass) was 98%, the pest or weed control at 250 g/ha ([6]; Eleusine indica, post-emergence, Postemergence, 250 g ai/ha, scale 0 to 100 (0 no effect, 100 complete control), 13 to 15 days, read-out: Plant response rating, Goosegrass) was 98% and the “Cupgrass, Woolly plant response rating (0 to 100 scale)” value [7, 8] was 90. The pest or weed control at 31 g/ha ([7]; Eriochloa villosa, post-emergence, Postemergence, 31 g ai/ha, 0 to 100 scale (0 no effect, 100 complete control), read-out: Plant response rating, Cupgrass, Woolly) was 85%, the pest or weed control at 125 g/ha ([7]; Eriochloa villosa, post-emergence, Postemergence, 125 g ai/ha, scale 0 to 100 (0 no effect, 100 complete control), read-out: Plant response rating, Cupgrass, Woolly) was 90% and the pest or weed control at 250 g/ha ([7]; Eriochloa villosa, post-emergence, Postemergence, 250 g ai/ha, scale 0 to 100 (0 no effect, 100 complete control), 13 to 15 days, read-out: Plant response rating, Cupgrass, Woolly) was 95%.
